Experimental data reported in PubChem BioAssay (NCI).
Several values for one entry are separate records, joined by “and”; a condition that tells them apart may be missing. Identical values can stand only once.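 Interpolation was linear, between the two tested concentrations surrounding the appropriate level; five concentrations were tested over 48 hours in 96-well plates. GI50 is the concentration that inhibits growth by half. TGI is the concentration that stops growth completely.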

Assays:
Experiment in all cases: growth of human tumour cells (NCI), 48 h
[1] = system: NCI-H460 lung
[2] = system: ACHN renal
[3] = system: SNB-75 CNS
[4] = system: SF-539 CNS
[5] = system: EKVX NSCLC
[6] = system: UACC-62 melanoma
[7] = system: HCT-116 colon
[8] = system: KM12 colon
[9] = system: SK-MEL-2 melanoma
[10] = system: MALME-3M melanoma

Which results are given for `CSc1ccc(/C=C2\CNC/C(=C\c3ccc(SC)cc3)C2=O)cc1`?
GI50 [1]: 114 µg/mL; TGI [1]: > 371 µM and 150 µg/mL; TGI [2]: > 371 µM; GI50 [3]: 23.2 µM and 7.91 µg/mL; TGI [3]: 86.4 µM and 47.5 µM and 27.9 µg/mL; GI50 [4]: 15.2 µg/mL; TGI [4]: 32.7 µM and 43.8 µg/mL; GI50 [5]: 150 µg/mL; TGI [5]: > 371 µM and 150 µg/mL; GI50 [6]: 93.5 µg/mL; TGI [6]: > 214 µM and 150 µg/mL; GI50 [7]: 31.4 µg/mL; TGI [7]: > 371 µM and 150 µg/mL; GI50 [8]: 150 µg/mL; TGI [8]: > 371 µM and 150 µg/mL; GI50 [9]: 150 µg/mL; TGI [9]: > 371 µM and 150 µg/mL; GI50 [10]: 150 µg/mL; TGI [10]: > 371 µM and 150 µg/mL

Which results are given for `O=C(Nc1ccc(OC(F)(F)F)cc1)c1sccc1NCc1ccnc2ccccc12`?
GI50 [1]: 4.01 µM; TGI [1]: > 100 µM; GI50 [2]: 2.56 µM; TGI [2]: > 100 µM; GI50 [3]: 1.88 µM; TGI [3]: 26.5 µM; GI50 [4]: 4.3 µM; TGI [4]: > 100 µM; GI50 [5]: 2.35 µM; TGI [5]: > 100 µM; GI50 [6]: 1.89 µM; TGI [6]: 14.9 µM; GI50 [7]: 2.12 µM; TGI [7]: > 100 µM; GI50 [8]: 3.85 µM; TGI [8]: > 56.9 µM; GI50 [9]: 1.28 µM; TGI [9]: 4.3 µM; GI50 [10]: 1.85 µM; TGI [10]: 14.6 µM

Which results are given for `CCOC(=O)c1c(NC(=O)c2ccc(C(C)C)cc2)sc2c(CN(C)C)c(O)ccc12`?
GI50 [1]: 1.88 µM; TGI [1]: 3.6 µM; GI50 [2]: 3.03 µM; TGI [2]: 9.24 µM; GI50 [3]: 1.47 µM; TGI [3]: 3.39 µM; GI50 [4]: 1.74 µM; TGI [4]: 3.23 µM; GI50 [5]: 2.78 µM; TGI [5]: 9.09 µM; GI50 [6]: 1.82 µM; TGI [6]: 3.48 µM; GI50 [7]: 1.78 µM; TGI [7]: 3.36 µM; GI50 [8]: 1.83 µM; TGI [8]: 3.45 µM; GI50 [9]: 2.14 µM; TGI [9]: 4.59 µM; GI50 [10]: 1.72 µM; TGI [10]: 3.22 µM

`Fc1cccc(COc2ccc(Nc3ncnc4sc(-c5ccco5)cc34)cc2Cl)c1` was tested. Which GI50 [1] did it give?
Its GI50 is over 25 µM.

And the TGI [1]?
Its TGI is over 25 µM.

What about the GI50 [2] of the same compound?
Its GI50 is over 25 µM.

What about the TGI [2] of the same compound?
Its TGI is over 25 µM.

And the GI50 [3]?
The GI50 was over 25 µM.

What about the TGI [3] of the same compound?
The TGI was over 25 µM.

And the GI50 [4]?
The GI50 was over 25 µM.

What about the TGI [4] of the same compound?
Its TGI is over 25 µM.

And the GI50 [5]?
Its GI50 is over 25 µM.

What about the TGI [5] of the same compound?
The TGI was over 25 µM.

And the GI50 [6]?
The GI50 was over 25 µM.

And the TGI [6]?
The TGI was over 25 µM.

And the GI50 [7]?
The GI50 was over 25 µM.

What about the TGI [7] of the same compound?
The TGI was over 25 µM.

What about the GI50 [8] of the same compound?
The GI50 was over 25 µM.

What about the TGI [8] of the same compound?
Its TGI is over 25 µM.

What about the GI50 [9] of the same compound?
Its GI50 is over 25 µM.

And the TGI [9]?
Its TGI is over 25 µM.

What about the GI50 [10] of the same compound?
The GI50 was over 25 µM.

And the TGI [10]?
Its TGI is over 25 µM.

Which TGI [1] does the source give for `CC1(C)O[C@H]2OC3CCC(=O)CC3(O)[C@H]2O1` (some centres undefined) here?
The TGI was over 100 µM.

What about the TGI [2] of the same compound?
Its TGI is over 100 µM.

What about the TGI [3] of the same compound?
The TGI was over 100 µM.

And the TGI [4]?
The TGI was over 100 µM.

And the TGI [5]?
Its TGI is over 100 µM.

What about the TGI [6] of the same compound?
The TGI was over 100 µM.

And the TGI [7]?
The TGI was over 100 µM.

And the TGI [8]?
The TGI was over 100 µM.

And the TGI [9]?
The TGI was over 100 µM.

And the TGI [10]?
The TGI was over 100 µM.

What does the source list for `COc1ccc([C@H]2CC(=O)N3CCCC3N2)cc1` (some centres undefined)?
TGI [1]: > 100 µM; TGI [2]: > 100 µM; TGI [3]: > 100 µM; TGI [4]: > 100 µM; TGI [5]: > 100 µM; TGI [6]: > 100 µM; TGI [7]: > 100 µM; TGI [8]: > 100 µM; TGI [9]: > 100 µM; TGI [10]: > 100 µM

What does the source list for `Nc1cc2c3c(cccc3c1)NC2=O`?
TGI [1]: > 100 µM; TGI [2]: > 100 µM; TGI [3]: > 100 µM; TGI [4]: > 100 µM; TGI [5]: > 100 µM; TGI [6]: > 100 µM; TGI [7]: > 100 µM; TGI [8]: > 100 µM; TGI [9]: > 100 µM; TGI [10]: > 100 µM
